Data set [1] deals with Aurora A kinase (Homo sapiens (Human), UniProt O14965). Briefly: Aurora A kinase 33P-ATP filter assay (Reaction Biology Corp.). The class given is biochemical. As for the experimental part:
The ability of the compounds of the invention to inhibit FLT3 kinase and Aurora A and Aurora B kinases was determined using the assays described below.
Kinase assays were performed at Reaction Biology Corp., Malvern, Pa., USA, using the following general procedure:
1) Prepare indicated substrate in freshly prepared Base Reaction Buffer (20 mM Hepes pH 7.5, 10 mM MgCl2, 1 mM EGTA, 0.02% Brij35, 0.02 mg/ml BSA, 0.1 mM Na3VO4, 2 mM DTT, 1% DMSO).
2) Deliver cofactors (1.5 mM CaCl2, 16 ug/mL Calmodulin, 2 mM MnCl2) to the substrate solution above.
3) Deliver indicated kinase into the substrate solution and gently mix
4) Deliver varying concentrations of test compound in DMSO into the kinase reaction mixture.
5) Deliver ^33P-ATP (specific activity 0.01 µCi/µL final) into the reaction mixture to initiate the reaction.
6) Incubate kinase reaction for 120 min at room temperature.
7) Reactions are spotted onto P81 ion exchange filter paper (Whatman #3698-915)
8) Unbound phosphate is removed by washing filters extensively in 0.75% phosphoric acid.
9) ^33P signal was determined using Typhoon phosphorimagers (GE Healthcare).
Substrates: Kemptide=[H-LRRASLG] Abltide=[[…]]

For data set [2], the system named is MV4-11 xenograft tumors. Description: MV4-11 xenograft study in nude mice. The data set is classed as in vivo, Balb/c nude mouse. Conditions: 4 cycles; for tumour inhibitory rate (IR): 5 days on, 2 day off, tumour weight at end point. The text has this:
The in vivo antitumour activity of compounds of the invention was investigated by examining the effect of the compounds of Examples 2 and 7 on tumour growth in a nude mouse xenograft model of the MV4-11 cancer cell line.
MV4-11 cell line (ATCC, USA); RPMI 1640 medium (Invitrogen, USA); FBS (Invitrogen, Australia); Balb/c nude mouse (Slac Laboratory Animal Co., Ltd., Shanghai, China): female, 18-22 g; HP-6-CD (Sigma, USA).
(§1) A total of 52 female nude mice were used. The mice were allowed 3 days of acclimatization period before starting the experiment. Mice were implanted subcutaneously (s.c.) with 200 μl of 1×10^7MV4-11 tumour cells in 50% Matrigel in the right flank at the beginning of the study. When tumours reached an average volume of 100-150 mm^3, 32 mice out of the 52 were selected based on tumour volume, and randomly assigned to 4 groups prior to dosing. Each treatment group consisted of 8 tumour-bearing animals (n=8/group).
(§2) A comparison group of mice were treated with cytarabine once daily for 5 days on, 2 days off, for 4 cycles.
(§3) Mice were weighed at each dosing and the tumour sizes recorded twice each week. Mice were observed closely for any overt signs of adverse, treatment-related side effects and these were recorded if and when they were observed.
The tumour size was measured twice weekly in two dimensions using calipers, and the volume was expressed in mm^3 using the formula: V=0.5 a×b^2 where a and b were the long and short diameters of the tumour, respectively.
(§4) Mice were euthanized by CO2 exposure after 4-cycle dose. The tumour volume, weight of dissected tumours, and the mouse body weight were measured and recorded. The tumour inhibitory rate (IR) was calculated by the formula IR=(WV−WT)/WV×100%.
The differences in tumour size between the groups were analyzed for significance using the unpaired two-tailed Student's t-test. P<0.05 was considered to be statistically significant.

Data set [3] concerns HCT-116. Description: Anti-proliferative activity, Alamar Blue assay. The class given is cell-based. Conditions: Homo sapiens, 96 h exposure, read-out: HCT116 96 Hrs IC50. As for the experimental part: (§5) The anti-proliferative activities of compounds of the invention are determined by measuring the ability of the compounds to inhibit the growth of the colorectal cancer derived cell-line HCT-116. Inhibition of cell growth is measured using the Alamar Blue assay (Nociari et al., Journal of Immunological Methods (1998) 213, 157-167). The method is based on the ability of viable cells to reduce resazurin to its fluorescent product resorufin. For each proliferation assay cells are plated onto 96 well plates and allowed to recover for 16 hours prior to the addition of inhibitor compounds for a further 96 hours. At the end of the incubation period 10% (v/v) Alamar Blue is added and incubated for a further 6 hours prior to determination of fluorescent product at Excitation 535 nm and Emission 590 nm. All cell lines are obtained from ECACC (European Collection of cell Cultures).
(§6) The activities of the compounds of the invention against the human colorectal cancer cell line HCT-116 are shown the in the table below. The column headed HCT-116 96 Hrs refers to the concentration of compound required to reduce the proliferation of HCT-116 cells by 50% following a 96 h period of exposure. The column headed [Polyploidy] refers to the lowest concentration of compound required to produce a distinct polyploid phenotype, believed to be due to Aurora B inhibition.
(The colour change of resazurin is a common sign of viable cells or microbes.)

The test system of data set [4] is HCT-116. Briefly: Polyploid phenotype in HCT-116 cells. The class given is cell-based, human. As for the experimental part: as §5, §6
Data set [5] deals with IM-9. Briefly: CellTiter-Blue assay, haematological cell line. The class given is cell-based. Conditions: Homo sapiens, 96 h; IM-9 (MM), four days treatment. As for the experimental part:
(§7) The compounds of Examples 2 and 7 were tested against a range of human haematological cell lines using the CellTiter-Blue® assay (#G8081, Promega) according to the manufacturer's instructions. Cells were harvested from exponential phase cultures, counted and plated in 96 well flat-bottom microtiter plates at a cell density of 20,000-90,000 cells/well. After a 24 h recovery period to allow the cells to resume exponential growth, 10 μl of culture medium (four control wells/plate) or of culture medium with test compound were added. The compounds were applied in duplicates at ten concentrations and treatment continued for four days. After treatment of cells, 10 μl/well CellTiter-Blue® reagent was added. Following an incubation period of up to four hours, fluorescence (FU) was measured by using the EnVision Xcite multilabel reader (excitation λ=531 nm, emission λ=615 nm). The compounds were tested in two to four independent experiments for each cell line.

The subject of data set [6] is JURL-MK1. Briefly: CellTiter-Blue assay, haematological cell line. The class given is cell-based. Conditions: Homo sapiens, 96 h; JURL-MK1 (CML), four days treatment. As to the method: as §7
Data set [7] relates to EM-2. Description: CellTiter-Blue assay, haematological cell line. The class given is cell-based. The conditions noted are these: Homo sapiens, 96 h; EM-2 (CML), four days treatment. As to the method:
as §7

The test system of data set [8] is K-562. Briefly: CellTiter-Blue assay, haematological cell line. Conditions: Homo sapiens, K562, 96 h; K-562 (CML), four days treatment. The class given is cell-based. As for the experimental part:
as §7

Data set [9] concerns U-937. Description: CellTiter-Blue assay, haematological cell line. The data set is classed as cell-based. Conditions: Homo sapiens, 96 h; U-937 (NHL), four days treatment. As to the method:
as §7

In data set [10] the test system is MV4-11. Description: CellTiter-Blue assay, haematological cell line. The data set is classed as cell-based. Conditions: Homo sapiens, 96 h; MV4-11 (AML), four days treatment. As to the method: as §7
Data set [11] relates to KM-H2. Briefly: CellTiter-Blue assay, haematological cell line. The data set is classed as cell-based. Conditions: Homo sapiens, 96 h; KM-H2 (HL), four days treatment. As for the experimental part:
as §7

Data set [12] in a line: Body weight / tolerability in MV4-11-bearing nude mice. The data set is classed as in vivo, Balb/c nude mouse. As to the method:
as §1, §2, §3, §4

Aurora A kinase, sequence (O14965 whole entry): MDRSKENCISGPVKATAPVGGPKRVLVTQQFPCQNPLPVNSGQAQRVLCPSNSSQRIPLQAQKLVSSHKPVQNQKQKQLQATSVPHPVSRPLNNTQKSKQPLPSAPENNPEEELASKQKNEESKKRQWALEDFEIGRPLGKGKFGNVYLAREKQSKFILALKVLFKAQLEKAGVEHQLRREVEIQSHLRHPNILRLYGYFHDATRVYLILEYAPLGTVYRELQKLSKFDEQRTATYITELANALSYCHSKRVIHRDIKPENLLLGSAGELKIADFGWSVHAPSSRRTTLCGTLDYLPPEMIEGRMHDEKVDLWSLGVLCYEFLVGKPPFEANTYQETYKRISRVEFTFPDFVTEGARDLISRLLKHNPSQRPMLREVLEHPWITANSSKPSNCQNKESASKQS

For `Cc1ccc2[nH]ccc2c1-c1nc(C(N)=O)c(-c2ccc(N3CCNC(C)(C)C3)cc2)o1` [Example 2, 2-(5-Methyl-1H-Indol-4-yl)-5-[4-(3,3-dimethyl-piperazin-1-yl)-phenyl]-oxazole-4-carboxylic acid amide], the half-maximal inhibitory concentration (IC50) in [1] is 13.6 nM; in data set [3] it was 74 nM; in [5], 70 nM; in data set [6], 141 nM; in data set [7], 604 nM; in data set [8] it was 326 nM. Further, the values for the half-inhibitory concentration (IC50) in data set [9], in [10] and in [11] were 94 nM, 9 nM and 189 nM, respectively. In addition, the “effect on tumour growth (tumour volume)” value in data set [2] (20 mg/kg IV BID) is recorded as “completely inhibited the tumor growth”. In addition, the “tumour inhibitory rate (IR)” value in data set [2] (20 mg/kg IV BID) came to 98.13%. Further, the “[Polyploidy] lowest concentration producing a distinct polyploid phenotype” value in data set [4] is 0.03 µM. Besides, the “toxicity in xenograft study” value in [12] (20 mg/kg IV BID) is listed as “without any obvious toxicity”.
For the molecule `Cc1cc(F)c2[nH]ccc2c1-c1nc(C(N)=O)c(-c2ccc(N3CCNC(C)(C)C3)cc2)o1` [Example 7, 2-(5-Methyl-7-Fluoro-1H-Indol-4-yl)-5-[4-(3,3-dimethyl-piperazin-1-yl)-phenyl]-oxazole-4-carboxylic acid amide], the IC50 in [1] was determined as 42.5 nM; in data set [3], 120 nM; in [5], 70 nM; in data set [6], 98 nM; in data set [7], 493 nM; in [8], 219 nM. Besides, the figures for the IC50 in data set [9], in data set [10] and in data set [11] were 155 nM, 9 nM and 137 nM, respectively. Besides, the “effect on tumour growth (tumour volume)” value in data set [2] (30 mg/kg IV BID) was “completely inhibited the tumor growth”. Also, in data set [2] (30 mg/kg IV BID), the “tumour inhibitory rate (IR)” value turned out to be 98.24%. Moreover, the “[Polyploidy] lowest concentration producing a distinct polyploid phenotype” value in data set [4] amounted to 0.1 µM. In addition, in data set [12] (30 mg/kg IV BID), the “toxicity in xenograft study” value is “without any obvious toxicity”.

As a reminder, the IC50 is the point on the concentration scale where inhibition reaches its midpoint.

The record behind these values is patent US9133180B2, “Aurora and FLT3 kinases modulators” (SAREUM LIMITED, priority 2012, dated 2015).
